Experimental data published in PubChem BioAssay (NCI).
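Five concentrations, 48 hours, 96-well plates. The concentration for 50% growth inhibition is given as GI50. Definition used: TGI = concentration required for complete inhibition of growth.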

Tests used:
Test in all cases: NCI tumour cell line growth inhibition, 48 h
MOLT-4 leukemia = system: MOLT-4 leukemia
HOP-62 NSCLC = system: HOP-62 NSCLC
UACC-62 melanoma = system: UACC-62 melanoma
HCT-116 colon = system: HCT-116 colon
M14 melanoma = system: M14 melanoma
T-47D breast = system: T-47D breast
OVCAR-3 ovarian = system: OVCAR-3 ovarian
LOX IMVI melanoma = system: LOX IMVI melanoma
NCI-H522 lung = system: NCI-H522 lung
HCC-2998 colon = system: HCC-2998 colon
786-0 renal = system: 786-0 renal
SNB-19 CNS = system: SNB-19 CNS
SF-539 CNS = system: SF-539 CNS
COLO 205 colon = system: COLO 205 colon
OVCAR-4 ovarian = system: OVCAR-4 ovarian
EKVX NSCLC = system: EKVX NSCLC
RPMI-8226 leukemia = system: RPMI-8226 leukemia
RXF 393 renal = system: RXF 393 renal
BT-549 breast = system: BT-549 breast
UACC-257 melanoma = system: UACC-257 melanoma
CAKI-1 renal = system: CAKI-1 renal
SN12C renal = system: SN12C renal
NCI-H226 lung = system: NCI-H226 lung
HOP-92 NSCLC = system: HOP-92 NSCLC
SF-295 CNS = system: SF-295 CNS
TK-10 renal = system: TK-10 renal
NCI-H23 lung = system: NCI-H23 lung
SNB-75 CNS = system: SNB-75 CNS
SF-268 CNS = system: SF-268 CNS
ACHN renal = system: ACHN renal
MCF7 breast = system: MCF7 breast
IGROV1 ovarian = system: IGROV1 ovarian
UO-31 renal = system: UO-31 renal
SK-MEL-28 melanoma = system: SK-MEL-28 melanoma
SK-OV-3 ovarian = system: SK-OV-3 ovarian
NCI/ADR-RES ovarian = system: NCI/ADR-RES ovarian
DU-145 prostate = system: DU-145 prostate
MDA-MB-435 = system: MDA-MB-435
SW-620 colon = system: SW-620 colon
PC-3 prostate = system: PC-3 prostate
HT29 colon = system: HT29 colon
K-562 leukemia = system: K-562 leukemia
U251 CNS = system: U251 CNS
HCT-15 colon = system: HCT-15 colon
NCI-H460 lung = system: NCI-H460 lung
A549 NSCLC = system: A549 NSCLC
OVCAR-5 ovarian = system: OVCAR-5 ovarian
SK-MEL-2 melanoma = system: SK-MEL-2 melanoma
CCRF-CEM leukemia = system: CCRF-CEM leukemia
HS 578T breast = system: HS 578T breast
KM12 colon = system: KM12 colon
OVCAR-8 ovarian = system: OVCAR-8 ovarian
MDA-MB-231 breast = system: MDA-MB-231 breast
SK-MEL-5 melanoma = system: SK-MEL-5 melanoma

## O=C(Cc1csc2nc(-c3ccc(Br)cc3)cn12)N/N=C/c1cc(Br)ccc1O
MOLT-4 leukemia
  GI50: 0.674 µM
  TGI: 8.41 µM
HOP-62 NSCLC
  GI50: 9.77 µM
  TGI: 41.3 µM
UACC-62 melanoma
  GI50: 10.4 µM
  TGI: 28.6 µM
HCT-116 colon
  GI50: 4.31 µM
  TGI: 48.2 µM
M14 melanoma
  GI50: 14.3 µM
  TGI: 30.4 µM
T-47D breast
  GI50: 35.3 µM
  TGI: > 100 µM
OVCAR-3 ovarian
  GI50: 45.3 µM
  TGI: > 100 µM
LOX IMVI melanoma
  GI50: 6.79 µM
  TGI: 28 µM
NCI-H522 lung
  GI50: 11.3 µM
  TGI: > 100 µM
HCC-2998 colon
  GI50: 5.5 µM
  TGI: 19.7 µM
786-0 renal
  GI50: 15 µM
  TGI: > 100 µM
SNB-19 CNS
  GI50: 26.1 µM
  TGI: > 100 µM
SF-539 CNS
  GI50: 14.9 µM
  TGI: 53.8 µM
COLO 205 colon
  GI50: 23.9 µM
  TGI: > 100 µM
OVCAR-4 ovarian
  GI50: 50.2 µM
  TGI: > 100 µM
EKVX NSCLC
  GI50: 24.2 µM
  TGI: > 100 µM
RPMI-8226 leukemia
  GI50: 5.04 µM
  TGI: > 100 µM
RXF 393 renal
  GI50: 63.9 µM
  TGI: > 100 µM
BT-549 breast
  GI50: 27.7 µM
  TGI: > 100 µM
UACC-257 melanoma
  GI50: 20.1 µM
  TGI: 63.2 µM
CAKI-1 renal
  GI50: 4.53 µM
  TGI: 34.9 µM
SN12C renal
  GI50: 16.6 µM
  TGI: 79.6 µM
NCI-H226 lung
  GI50: 23.3 µM
  TGI: 65.1 µM
HOP-92 NSCLC
  GI50: 22.2 µM
  TGI: > 100 µM
SF-295 CNS
  GI50: 14 µM
  TGI: 88.3 µM
TK-10 renal
  GI50: 4.33 µM
  TGI: 17 µM
NCI-H23 lung
  GI50: 4.32 µM
  TGI: 26.2 µM
SNB-75 CNS
  GI50: > 100 µM
  TGI: > 100 µM
SF-268 CNS
  GI50: > 100 µM
  TGI: > 100 µM
ACHN renal
  GI50: 6.13 µM
  TGI: 42.9 µM
MCF7 breast
  GI50: > 100 µM
  TGI: > 100 µM
IGROV1 ovarian
  GI50: 1.77 µM
  TGI: > 100 µM
UO-31 renal
  GI50: 24 µM
  TGI: > 100 µM
SK-MEL-28 melanoma
  GI50: 48.8 µM
  TGI: > 100 µM
SK-OV-3 ovarian
  GI50: > 100 µM
  TGI: > 100 µM
NCI/ADR-RES ovarian
  GI50: 2.23 µM
  TGI: 6.75 µM
DU-145 prostate
  GI50: 19.5 µM
  TGI: > 100 µM
MDA-MB-435
  GI50: 18 µM
  TGI: > 100 µM
SW-620 colon
  GI50: 5.51 µM
  TGI: > 100 µM
PC-3 prostate
  GI50: 9.46 µM
  TGI: > 100 µM
HT29 colon
  GI50: 34.7 µM
  TGI: > 100 µM
K-562 leukemia
  GI50: 3.02 µM
  TGI: 13.9 µM
U251 CNS
  GI50: 11.3 µM
  TGI: > 100 µM
HCT-15 colon
  GI50: 5.6 µM
  TGI: > 100 µM
NCI-H460 lung
  GI50: > 100 µM
  TGI: > 100 µM
A549 NSCLC
  GI50: 18.8 µM
  TGI: > 100 µM
OVCAR-5 ovarian
  GI50: 14 µM
  TGI: 73.5 µM
SK-MEL-2 melanoma
  GI50: 89 µM
  TGI: > 100 µM
CCRF-CEM leukemia
  GI50: 3.89 µM
  TGI: 38.6 µM
HS 578T breast
  GI50: 53.3 µM
  TGI: > 100 µM
KM12 colon
  GI50: 29.6 µM
  TGI: > 100 µM
OVCAR-8 ovarian
  GI50: 7.06 µM
  TGI: > 100 µM
MDA-MB-231 breast
  GI50: 11.8 µM
  TGI: 66.8 µM
SK-MEL-5 melanoma
  GI50: 11.4 µM
  TGI: 45.4 µM
